Drawing on patent US9926506B2, “Tetrarylmethane ethers as fuel markers” (Dow Global Technologies LLC, priority 2014, dated 2018), this text covers melting point for four compounds.

As to `CCCCCCCOc1ccc(C(c2ccccc2)(c2ccccc2)c2ccc(OCCCCCCC)cc2)cc1` [BHeptTPM, Bis(4-(heptyloxy)phenyl)diphenylmethane], the melting point (usually the temperature, or range, at which the solid turns liquid) lay in the range of 103 to 105 °C. In the case of `CCCCCCOc1ccc(C(c2ccccc2)(c2ccccc2)c2ccc(OCCCCCC)cc2)cc1` [BHexTPM], the melting point was in the range of 120 to 122 °C. For `CCCCCCCCOc1ccc(C(c2ccccc2)(c2ccccc2)c2ccc(OCCCCCCCC)cc2)cc1` [BOctTPM, Bis(4-(octyloxy)phenyl)diphenylmethane], the melting point fell in the range of 84.5 to 86.5 °C. For `CCCCCOc1ccc(C(c2ccccc2)(c2ccccc2)c2ccc(OCCCCC)cc2)cc1` [BPentTPM, Bis(4-(pentyloxy)phenyl)diphenylmethane] the value was 110 to 113 °C.
